Data as given in US20260193293A1, “PEPTIDES CAPABLE OF INHIBITING PROTEIN-PROTEIN INTERACTIONS AT GABAB1A SUBUNIT AND USES THEREOF” (UNIVERSITY OF COPENHAGEN, priority 2022, published 2026).
Read-outs that look alike come from different tables or passages of the source. Non-standard residues stand in square brackets, D forms with d. Residues, ends and D or L forms follow the SMILES beside them. *: point of attachment. 1Nal = N[C@@H](Cc1cccc2ccccc12)C(=O)O; Bn = c1ccc(C*)cc1; Sar = CNCC(=O)O

Target: Sushi domains (SD1/2) protein
Test: Fluorescence polarization (FP) competition assay with AJAP-1probe, calculated Ki
Type: binding
Outline: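 Ki values were derived from IC50s (sigmoidal fits, ≥ triplicate), with probe Kd obtained by saturation titration of SD1/2. Peptides displaced a 25 nM TAMRA-labelled probe; polarization read at 530/580 nm in 1% BSA-containing PBS, pH 7.4, room temperature.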

[1] = Table 4, truncation and elongation scans of APP epitope, read-out: Ki (nM) mean ± SEM
[2] = Table 1, affinity maturation, mean ± SEM, n ≥ 3, read-out: Ki
[3] = Table 13, peptides for affinity maturation, read-out: Ki (nM) mean ± SEM
[4] = Table 11, deep mutational scanning validation variants of AJAP-1WT, read-out: Ki (nM) mean ± SEM
[5] = Table 16, ncAAs incorporated peptides, read-out: Ki (nM) mean ± SEM

Question: `CC(=O)N[C@H](C(=O)N[C@@H](Cc1c[nH]c2ccccc12)C(=O)N[C@@H](Cc1c[nH]c2ccccc12)C(=O)NCC(=O)NCC(=O)N[C@@H](C)C(=O)N[C@@H](CC(=O)O)C(=O)N[C@H](C(=O)N[C@@H](CC(=O)O)C(=O)N[C@@H](Cc1ccc(O)cc1)C(=O)N[C@@H](C)C(=O)N[C@@H](CC(=O)O)C(N)=O)[C@@H](C)O)C(C)C` (Ac-VWWGGADTDYAD-NH2) was tested. Which Ki [1] did it give?
Answer: 60800 ± 5220 nM

Question: Which results are given for `CC[C@H](C)[C@H](NC(=O)[C@H](Cc1c[nH]c2ccccc12)NC(=O)[C@H](CO)NC(=O)[C@H](CC(=O)O)NC(=O)[C@H](CC(=O)O)NC(=O)[C@H](CCC(=O)O)NC(C)=O)C(=O)N[C@@H](Cc1c[nH]c2ccccc12)C(=O)N[C@@H](Cc1c[nH]c2ccccc12)C(=O)NCC(=O)N1CCC[C@H]1C(=O)N[C@H](C(=O)NCC(=O)N[C@@H](CC(=O)O)C(=O)N[C@@H](CCC(=O)O)C(=O)N[C@@H](CC(=O)O)C(N)=O)[C@@H](C)O` [Peptide 27, Ac-EDDSWIWWGPTGDED-NH2] (Ac-EDDSWIWWGPTGDED-NH2)?
Answer: Ki [2]: 16 ± 1 nM; Ki [3]: 16 ± 1 nM; fold better affinity than 9 (comparator printed as 9): 3.8 fold

Question: With `CC[C@H](C)[C@H](NC(=O)[C@H](Cc1ccccc1)NC(=O)[C@H](CO)NC(=O)[C@@H](NC(=O)[C@H](CCC(=O)O)NC(C)=O)[C@@H](C)O)C(=O)N[C@@H](C)C(=O)N[C@@H](Cc1c[nH]c2ccccc12)C(=O)NCC(=O)N1CCC[C@H]1C(=O)N[C@H](C(=O)NCC(=O)N[C@@H](CC(=O)O)C(=O)N[C@@H](CCC(=O)O)C(=O)N[C@@H](CC(=O)O)C(N)=O)[C@@H](C)O` [ETSFIAWGPTGDED] (Ac-ETSFIAWGPTGDED-NH2) as the molecule, how does the Ki [4] read?
Answer: 34 ± 1 nM

Question: Which Ki [4] does the source give for `CC[C@H](C)[C@H](NC(=O)[C@H](Cc1ccccc1)NC(=O)[C@H](CCC(=O)O)NC(=O)[C@@H](NC(=O)[C@H](CCC(=O)O)NC(C)=O)[C@@H](C)O)C(=O)N[C@@H](C)C(=O)N[C@@H](Cc1c[nH]c2ccccc12)C(=O)NCC(=O)N1CCC[C@H]1C(=O)N[C@H](C(=O)NCC(=O)N[C@@H](CC(=O)O)C(=O)N[C@@H](CCC(=O)O)C(=O)N[C@@H](Cc1c[nH]cn1)C(N)=O)[C@@H](C)O` here?
Answer: 39 ± 2 nM

Question: Which Ki [4] does the source give for `CC[C@H](C)[C@H](NC(=O)[C@H](Cc1ccccc1)NC(=O)[C@H](CCC(=O)O)NC(=O)[C@@H](NC(=O)[C@H](CCC(=O)O)NC(C)=O)[C@@H](C)O)C(=O)N[C@@H](C)C(=O)N[C@@H](Cc1c[nH]c2ccccc12)C(=O)NCC(=O)N1CCC[C@H]1C(=O)N[C@H](C(=O)N[C@@H](Cc1ccccc1)C(=O)N[C@@H](CC(=O)O)C(=O)N[C@@H](CCC(=O)O)C(=O)N[C@@H](CC(=O)O)C(N)=O)[C@@H](C)O` [ETEFIAWGPTFDED] here?
Answer: 46 ± 2 nM

Question: Which Ki (Table 9, Ala-, D-amino acids and N-methylation scans of PIANPWT, read-out: Ki (nM) mean ± SEM) does the source give for `CC[C@H](C)[C@H](NC(=O)[C@H](C)NC(=O)[C@H](Cc1c[nH]c2ccccc12)NC(=O)[C@@H]1CCCN1C(C)=O)C(=O)N[C@@H](C)C(=O)N[C@@H](Cc1c[nH]c2ccccc12)C(=O)NCC(=O)N1CCC[C@H]1C(=O)N[C@H](C(=O)N[C@H](C(=O)N[C@@H](CO)C(=O)N[C@@H](CCCNC(=N)N)C(=O)N[C@@H](CCC(=O)O)C(=O)N[C@@H](CC(=O)O)C(N)=O)C(C)C)[C@@H](C)O` [PWAIAWGPTVSRED] here?
Answer: 1462 ± 14 nM

Question: Which Ki [1] does the source give for `CC(=O)N[C@@H](CO)C(=O)N[C@@H](C)C(=O)N[C@@H](CC(=O)O)C(=O)N[C@@H](C)C(=O)N[C@@H](CCC(=O)O)C(=O)N[C@@H](CCC(=O)O)C(=O)N[C@@H](CC(=O)O)C(=O)N[C@@H](CC(=O)O)C(=O)N[C@@H](CO)C(=O)N[C@@H](CC(=O)O)C(=O)N[C@H](C(=O)N[C@@H](Cc1c[nH]c2ccccc12)C(=O)N[C@@H](Cc1c[nH]c2ccccc12)C(=O)NCC(=O)NCC(=O)N[C@@H](C)C(=O)N[C@@H](CC(=O)O)C(=O)N[C@H](C(=O)N[C@@H](CC(=O)O)C(=O)N[C@@H](Cc1ccc(O)cc1)C(=O)N[C@@H](C)C(=O)N[C@@H](CC(=O)O)C(N)=O)[C@@H](C)O)C(C)C` (Ac-SADAEEDDSDVWWGGADTDYAD-NH2) here?
Answer: 284 ± 5 nM

Question: What does the source list for `CC[C@H](C)[C@H](NC(=O)[C@H](Cc1ccccc1)NC(=O)[C@H](CCC(=O)O)NC(=O)[C@@H](NC(=O)[C@H](CCC(=O)O)NC(C)=O)[C@@H](C)O)C(=O)N[C@@H](C)C(=O)N[C@@H](Cc1c[nH]c2ccccc12)C(=O)N[C@@H](Cc1ccc(O)cc1)C(=O)NCC(=O)N[C@@H](C)C(=O)N[C@@H](CC(=O)O)C(=O)N[C@H](C(=O)N[C@@H](CC(=O)O)C(N)=O)[C@@H](C)O` [Peptide 37] (Ac-ETEFIAWYGADTD-NH2)?
Answer: Ki [2]: 95 ± 5 nM; Ki [3]: 95 ± 5 nM

Question: With `CC[C@H](C)[C@H](NC(=O)[C@H](C)NC(=O)[C@H](Cc1c[nH]c2ccccc12)NC(=O)[C@@H]1CCCN1C(=O)[C@H](Cc1ccc(O)cc1)NC(=O)[C@H](CCC(N)=O)NC(=O)[C@H](CO)NC(C)=O)C(=O)N[C@H](C(=O)N[C@@H](Cc1c[nH]c2ccccc12)C(=O)NCC(=O)N1CCC[C@H]1C(=O)N[C@H](C(=O)N[C@H](C(=O)N[C@@H](CO)C(=O)N[C@@H](CCCNC(=N)N)C(=O)N[C@@H](CCC(=O)O)C(=O)N[C@@H](CC(=O)O)C(=O)NCC(N)=O)C(C)C)[C@@H](C)O)C(C)C` (Ac-SQYPWAIVWGPTVSREDG-NH2) as the molecule, how does the Ki (Table 6, elongation and truncation scan of PIANP binding epitope, read-out: Ki (nM) mean ± SEM) read?
Answer: 762 ± 13 nM

Question: With `CC[C@H](C)[C@H](NC(=O)[C@H](Cc1ccccc1)NC(=O)[C@H](CCC(=O)O)NC(=O)[C@@H](NC(=O)[C@H](CCC(=O)O)NC(C)=O)[C@@H](C)O)C(=O)N[C@@H](C)C(=O)N[C@@H](Cc1c[nH]c2ccccc12)C(=O)NCC(=O)N(C)CC(=O)N[C@H](C(=O)NCC(=O)N[C@@H](CC(=O)O)C(=O)N[C@@H](CCC(=O)O)C(=O)N[C@@H](CC(=O)O)C(N)=O)[C@@H](C)O` [Peptide 38] (Ac-ETEFIAWG[Sar]TGDED-NH2) as the molecule, how does the Ki [2] read?
Answer: 32 ± 2 nM

Question: What about the Ki (Table 8, Ala-, D-amino acids and N-methylation scans of AJAP-1WT, read-out: Ki (nM) mean ± SEM) of the same molecule?
Answer: 32 ± 2 nM

Question: And the Ki [3]?
Answer: 32 ± 2 nM

Question: `CC[C@H](C)[C@H](NC(=O)[C@H](Cc1ccccc1)NC(=O)[C@H](CCC(=O)O)NC(=O)[C@@H](NC(=O)[C@H](CCC(=O)O)NC(C)=O)[C@@H](C)O)C(=O)N[C@@H](C)C(=O)N[C@@H](Cc1c[nH]c2ccccc12)C(=O)NCC(=O)N1CCC[C@H]1C(=O)N[C@H](C(=O)NCC(=O)N[C@@H](CC(=O)O)C(=O)N[C@@H](CC(=O)O)C(=O)N[C@@H](CC(=O)O)C(N)=O)[C@@H](C)O` (Ac-ETEFIAWGPTGDDD-NH2) was tested. Which Ki [4] did it give?
Answer: 27 ± 2 nM

Question: Which Ki [4] does the source give for `CC[C@H](C)[C@H](NC(=O)[C@H](Cc1ccccc1)NC(=O)[C@H](CCC(=O)O)NC(=O)[C@@H](NC(=O)[C@H](CC(N)=O)NC(C)=O)[C@@H](C)O)C(=O)N[C@@H](C)C(=O)N[C@@H](Cc1c[nH]c2ccccc12)C(=O)NCC(=O)N1CCC[C@H]1C(=O)N[C@H](C(=O)NCC(=O)N[C@@H](CC(=O)O)C(=O)N[C@@H](CCC(=O)O)C(=O)N[C@@H](CC(=O)O)C(N)=O)[C@@H](C)O` [NTEFIAWGPTGDED] (Ac-NTEFIAWGPTGDED-NH2) here?
Answer: 62 ± 3 nM

Question: How did the Ki [5] turn out when `CC(=O)N[C@@H](CCC(=O)O)C(=O)N[C@@H](CC(=O)O)C(=O)N[C@@H](CC(=O)O)C(=O)N[C@@H](CO)C(=O)N[C@@H](Cc1ccc(OCc2ccccc2)cc1)C(=O)N[C@H](C(=O)N[C@@H](Cc1c[nH]c2ccccc12)C(=O)N[C@@H](Cc1c[nH]c2ccccc12)C(=O)NCC(=O)NCC(=O)N[C@@H](C)C(=O)N[C@@H](CC(=O)O)C(=O)N[C@H](C(=O)N[C@@H](CC(=O)O)C(N)=O)[C@@H](C)O)C(C)C` (Ac-EDDSY(Bn)VWWGGADTD-NH2) was run?
Answer: 28 ± 1 nM

Question: What about the Ki (purified peptides, read-out: Ki) of the same molecule?
Answer: 27.1 nM

Question: What about the “fold increased affinity compared to Asp207Trp” value (relative to Asp207Trp mutant of APPWT) of the same molecule?
Answer: 4 fold

Question: With `CC(=O)N[C@@H](CCC(=O)O)C(=O)N[C@@H](CC(=O)O)C(=O)N[C@@H](CC(=O)O)C(=O)N[C@@H](Cc1c[nH]c2ccccc12)C(=O)N[C@@H](CC(=O)O)C(=O)N[C@H](C(=O)N[C@@H](Cc1c[nH]c2ccccc12)C(=O)N[C@@H](Cc1c[nH]c2ccccc12)C(=O)NCC(=O)NCC(=O)N[C@@H](C)C(=O)N[C@@H](CC(=O)O)C(=O)N[C@H](C(=O)N[C@@H](CC(=O)O)C(N)=O)[C@@H](C)O)C(C)C` (Ac-EDDWDVWWGGADTD-NH2) as the molecule, how does the Ki (Table 10, deep mutational scanning validation variants of APPWT, read-out: Ki (nM) mean ± SEM) read?
Answer: 257 ± 4 nM

Question: How did the Ki [5] turn out when `CC(=O)N[C@@H](CCC(=O)O)C(=O)N[C@@H](CC(=O)O)C(=O)N[C@@H](CC(=O)O)C(=O)N[C@@H](CO)C(=O)N[C@@H](CC(=O)O)C(=O)N[C@H](C(=O)N[C@@H](Cc1c[nH]c2ccccc12)C(=O)N[C@@H](Cc1cccc2ccccc12)C(=O)NCC(=O)NCC(=O)N[C@@H](C)C(=O)N[C@@H](CC(=O)O)C(=O)N[C@H](C(=O)N[C@@H](CC(=O)O)C(N)=O)[C@@H](C)O)C(C)C` [EDDSDVW(1Nala)GGADTD] (Ac-EDDSDVW[1Nal]GGADTD-NH2) was run?
Answer: 499 ± 17 nM

Question: `CC[C@H](C)[C@H](NC(=O)[C@H](Cc1ccccc1)NC(=O)[C@H](CCC(=O)O)NC(=O)[C@@H](NC(=O)[C@H](CCC(=O)O)NC(=O)[C@@H](NC(=O)[C@@H](NC(C)=O)[C@@H](C)O)[C@@H](C)O)[C@@H](C)O)C(=O)N[C@@H](C)C(=O)N[C@@H](Cc1c[nH]c2ccccc12)C(=O)NCC(=O)N1CCC[C@H]1C(=O)N[C@H](C(=O)NCC(=O)N[C@@H](CC(=O)O)C(=O)N[C@@H](CCC(=O)O)C(=O)N[C@@H](CC(=O)O)C(N)=O)[C@@H](C)O` (Ac-TTETEFIAWGPTGDED-NH2) was tested. Which Ki (Table 5, elongation and truncation scan of AJAP-1 binding epitope, read-out: Ki (nM) mean ± SEM) did it give?
Answer: 32 ± 1.4 nM

Question: Which Ki [1] does the source give for `CC(=O)N[C@@H](CCC(=O)O)C(=O)N[C@@H](CCC(=O)O)C(=O)N[C@@H](CC(=O)O)C(=O)N[C@@H](CC(=O)O)C(=O)N[C@@H](CO)C(=O)N[C@@H](CC(=O)O)C(=O)N[C@H](C(=O)N[C@@H](Cc1c[nH]c2ccccc12)C(=O)N[C@@H](Cc1c[nH]c2ccccc12)C(=O)NCC(N)=O)C(C)C` (Ac-EEDDSDVWWG-NH2) here?
Answer: 12800 ± 415 nM
